This test has as its system NCI-H211 tumor spheroids, viability percent test/control. The test can be described thus: Anticancer human tumor NCI-H211 cell line growth inhibition.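 On all read-outs here: spheroids exposed to agents for seven days before readout.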 The settings on record: spheroids with HUVEC and MSC; for viability, T/C: stronger effect = lower value. The text has this: Multicellular complex tumor spheroid response to DNA repair inhibitors in combination with DNA-damaging drugs
This study explores the anticancer activities of DNA-damaging drugs and inhibitors of DNA damage repair, both as single agents and in combinations. Complex tumor spheroids comprised of malignant cells, endothelial cells and mesenchymal stem cells served as an in vitro model for human solid tumors. This model system incorporates physiologically relevant features and patient-derived or established malignant cell lines with clinically relevant genetic alterations from many tumor types. Twenty-six patient-derived or established malignant cell lines were evaluated representing sarcoma, melanoma, small cell lung cancer (SCLC), non-small cell lung cancer (NSCLC), as well as bladder, ovarian and pancreatic cancers. The concentration ranges selected for each drug and investigational agent were based upon clinically achievable concentrations if the clinical Cmax of the agent was known.
Compounds. The drugs and compounds olaparib (NSC753686), talazoparib (NSC767125), berzosertib (NSC777718), elimusertib (NSC800525), nedisertib (NSC802822), VX-984 (NSC792969), AZD-1390 (NSC803789), temozolomide (NSC362856), topotecan (NSC609699), trabectedin (NSC813783), staurosporine (NSC755774), and gemcitabine (NSC613327) were obtained from the National Cancer Institute (NCI) Developmental Therapeutics Program Chemical Repository. The FDA-approved anticancer drug set is available from the Developmental Therapeutics Program at https://dtp.cancer.gov/organization/dscb/obtaining/available_plates.htm. […] The stock solutions were prepared in dimethyl sulfoxide (DMSO, Sigma-Aldrich, St. Louis, MO, cat. D2650) at 400-fold the tested concentration and stored at -70 degrees C. Prior to their use, the stock solutions were diluted in fresh medium and the final DMSO concentration in the assay was 0.25% (v/v). All drugs and investigational agents were tested over a range starting from a high concentration at or near the clinical Cmax and decreasing in half-log increments. If the clinical Cmax for an agent had not been determined, the highest concentration tested was 10 microM.
Cell Lines. The patient-derived cancer cell (PDC) lines: 156681-154-R-J1-PDC, 283228-195-R-J1-PDC, 287954-098-R-J1-PDC, 292921-168-R-J2-PDC, 349418-098-R-PDC, 425362-245-T-J1-PDC, 556581-035-R-J1-PDC, and BL0293-F563-PDC were received from the NCI Patient-Derived Models Repository (PDMR, https://pdmr.cancer.gov). The established cell lines HS-SY-2 (RRID:CVCL_8719), MPNST, and SYO-1 (RRID:CVCL_7146) were obtained from the Sloan Kettering Institute. The alveolar soft parts sarcoma cell line ASPS-1 (RRID:CVCL_S738) was established at the NCI and grown from internal seed stocks. The following established cell lines were purchased from the American Type Culture Collection (ATCC, Manassas, VA): G-401 (ATCC, cat. CRL-1441, RRID:CVCL_0270), SW982 (ATCC, cat. HTB-93, RRID:CVCL_1734), VA-ES-BJ (ATCC, cat. CRL-2138, RRID:CVCL_1785), NCI-H719 (ATCC, cat. CRL-5837, RRID:CVCL_1582), NCI-H196 (ATCC, cat. CRL-5823, RRID:CVCL_1509), NCI-H841 (ATCC, cat. CRL-5845, RRID:CVCL_1595), NCI-H1618 (ATCC, cat. CRL-5879, RRID:CVCL_1480), NCI-H1876 (ATCC, cat. CRL-5902, RRID:CVCL_1503), DMS 114 (ATCC, cat. CRL-2066; RRID:CVCL_1174), NCI-H211 (ATCC, cat. CRL-5824; RRID:CVCL_1529), and SW 1271 (ATCC, cat. CRL-2177, RRID:CVCL_1716). The small cell lung cancer cell line COR-L88 was purchased from Sigma-Aldrich (cat. 92031917-1VL, RRID:CVCL_1141). The non-small cell lung cancer cell lines NCI-H226 (RRID:CVCL_1544) and NCI-H322M (RRID:CVCL_1557) were established at the NCI and grown from internal seed stocks. Pooled donor human umbilical vein endothelial cells (HUVEC, Lonza, cat. CC-2519) and human mesenchymal stem cells (hMSC, Lonza, cat. PT-2501) were purchased from Lonza (Walkersville, MD).
Cell Culture. All cells were maintained in an incubator at 37 degrees C and 5% CO2 with 95% humidity. […]

Where [1] appears, read: curve of first compound, second compound 1 µM.
[2] abbreviates: curve of first compound, second compound 3.16 µM.
The mark [3] stands for this setting: curve of first compound, second compound 10 µM.
Where [4] appears, read: curve of first compound, second compound 31.6 µM.
The mark [5] stands for this setting: curve of first compound, second compound 100 µM.
The mark [6] stands for this setting: second compound 1 µM, first compound 0.0316 µM.
The mark [7] stands for this setting: second compound 1 µM, first compound 0.1 µM.
Setting [8] is: second compound 1 µM, first compound 0.316 µM.
Where [9] appears, read: second compound 1 µM, first compound 1 µM.
Setting [10] is: second compound 1 µM, first compound 3.16 µM.
Setting [11] is: second compound 1 µM, first compound 10 µM.
The mark [12] stands for this setting: second compound 3.16 µM, first compound 0.0316 µM.
Where [13] appears, read: second compound 3.16 µM, first compound 0.1 µM.
Where [14] appears, read: second compound 3.16 µM, first compound 0.316 µM.
Where [15] appears, read: second compound 3.16 µM, first compound 1 µM.
Where [16] appears, read: second compound 3.16 µM, first compound 3.16 µM.
Where [17] appears, read: second compound 3.16 µM, first compound 10 µM.
The mark [18] stands for this setting: second compound 10 µM, first compound 0.0316 µM.
[19] abbreviates: second compound 10 µM, first compound 0.1 µM.
[20] abbreviates: second compound 10 µM, first compound 0.316 µM.
[21] abbreviates: second compound 10 µM, first compound 1 µM.
The mark [22] stands for this setting: second compound 10 µM, first compound 3.16 µM.
[23] abbreviates: second compound 10 µM, first compound 10 µM.
The mark [24] stands for this setting: second compound 31.6 µM, first compound 0.0316 µM.
Setting [25] is: second compound 31.6 µM, first compound 0.1 µM.
Where [26] appears, read: second compound 31.6 µM, first compound 0.316 µM.
Setting [27] is: second compound 31.6 µM, first compound 1 µM.
Setting [28] is: second compound 31.6 µM, first compound 3.16 µM.
Where [29] appears, read: second compound 31.6 µM, first compound 10 µM.
[30] abbreviates: second compound 100 µM, first compound 0.0316 µM.
The mark [31] stands for this setting: second compound 100 µM, first compound 0.1 µM.
Setting [32] is: second compound 100 µM, first compound 0.316 µM.
The mark [33] stands for this setting: second compound 100 µM, first compound 1 µM.
The mark [34] stands for this setting: second compound 100 µM, first compound 3.16 µM.
The mark [35] stands for this setting: second compound 100 µM, first compound 10 µM.

4 molecules from PubChem BioAssay AID1845209 (Molecular Pharmacology Branch, DTP, NCI, 2023) can be followed below.

The structures appear in SMILES notation. Several values for one entry are separate records, joined by “and”; a condition that tells them apart may be missing. Identical values can stand only once. Bounds are passed on as bounds.

By IC50 is commonly meant the midpoint of a concentration-inhibition curve. One may read the viability, T/C as the result in the treated group divided by that in the control group, in per cent.

In the case of `CC1COCCN1c1cc(-c2ccnn2C)c2ccnc(-c3ccn[nH]3)c2n1` (stereo not drawn) + Cn1nnc2c(C(N)=O)ncn2c1=O, the IC50 is, setting by setting: under setting [1], less than 31.6 nM; under setting [2], less than 31.6 nM; under setting [3], less than 31.6 nM; under setting [4], less than 31.6 nM; under setting [5], less than 31.6 nM. The viability, T/C runs as follows: under setting [6], 11.4%; under setting [7], 1.45%; under setting [8], 0.83%; under setting [9], 0.74%; under setting [10], 0.72%; under setting [11], 1.43%. Further, the viability, T/C was 9.67% under setting [12]; 1.34% under setting [13]; 0.86% under setting [14]; 0.68% under setting [15]; 0.72% under setting [16]; 1.44% under setting [17]. Besides, the viability, T/C is 6.59% under setting [18]; 0.88% under setting [19]; 0.79% under setting [20]; 0.62% under setting [21]; 0.67% under setting [22]; 1.16% under setting [23]. For the same molecule, the viability, T/C under setting [24] is 1.39%; the viability, T/C under setting [25] was 1.09%; the viability, T/C under setting [26] was 0.74%; the viability, T/C under setting [27] is 0.59%; the viability, T/C under setting [28] was 0.66%; the viability, T/C under setting [29] is 1.11%. In addition, the viability, T/C by setting is: under setting [30], 1.19%; under setting [31], 1.1%; under setting [32], 0.95%; under setting [33], 0.67%; under setting [34], 0.65%; under setting [35], 1.12%.

Regarding `CC[C@@]1(O)C(=O)OCc2c1cc1n(c2=O)Cc2cc3c(CN(C)C)c(O)ccc3nc2-1`, the viability, T/C reads like this: (compound 0.00949 µM) 12.2% [middle of 10 runs]; (compound 0.03 µM) 1.13% [middle of 10 runs]; (compound 0.0949 µM) 1.05% [middle of 10 runs]; (compound 0.3 µM) 1.08% [middle of 10 runs]. The IC50 reads like this: (compound alone, run of 11/07/2019) 4.84 nM [middle of 4 runs]; (compound alone, run of 12/16/2019) 6.27 nM [middle of 5 runs].

For `CC(C)n1c(=O)n(C)c2cnc3cc(F)c(-c4ccc(OCCCN5CCCCC5)nc4)cc3c21` + Cn1nnc2c(C(N)=O)ncn2c1=O, the IC50 runs as follows: under setting [1], 662 nM; under setting [2], 781 nM; under setting [3], 118 nM; under setting [4], less than 31.6 nM; under setting [5], less than 31.6 nM. Moreover, the viability, T/C under setting [6] was 70.8%; the viability, T/C under setting [7] is 69.4%; the viability, T/C under setting [8] is 54%; the viability, T/C under setting [9] is 48.1%; the viability, T/C under setting [10] is 28.4%; the viability, T/C under setting [11] was 9.99%. Further, the viability, T/C by setting is: under setting [12], 66%; under setting [13], 66.1%; under setting [14], 63.8%; under setting [15], 42.6%; under setting [16], 30.7%; under setting [17], 8.69%. The viability, T/C by setting is: under setting [18], 61.6%; under setting [19], 52.2%; under setting [20], 35.7%; under setting [21], 34.7%; under setting [22], 20.3%; under setting [23], 4.95%. The viability, T/C is, setting by setting: under setting [24], 19.9%; under setting [25], 16.5%; under setting [26], 10.7%; under setting [27], 8.57%; under setting [28], 5.7%; under setting [29], 0.75%. The viability, T/C by setting is: under setting [30], 4.09%; under setting [31], 3.62%; under setting [32], 2.44%; under setting [33], 1.96%; under setting [34], 1.15%; under setting [35], 0.49%.

Turning to `Cc1cc(C)c(CNC(=O)c2cc(-c3ccc(CN4CCOCC4)cc3)cc3c2cnn3C2CCCC2)c(=O)[nH]1`, the viability, T/C is 106% and 79.2% and 96.2% (compound 0.0316 µM); 102% (2×) and 89.3% (compound 0.1 µM); 102% and 95.7% and 100% (compound 0.316 µM); 96.7% and 87.9% and 102% (compound 1 µM); 91.7% and 82.2% and 104% (compound 3.16 µM); 52% and 33.5% and 63.2% (compound 10 µM). In addition, the IC50 (curve of compound) was > 10000 nM and 6780 nM.
